Assay results from ChEMBL document CHEMBL1140067, “Synthesis, in vitro, and in vivo biological evaluation and molecular docking simulations of chiral alcohol and ether derivatives of the 1,5-diarylpyrrole scaffold as novel anti-inflammatory and analgesic agents” (Bioorg Med Chem, 2008).
Blank lines part the entries; values can stand above or below the molecule they belong to.

Assays:
[1] = tested on: J774; experiment: Selectivity ratio of IC50 for COX1 in arachidonic acid-stimulated mouse J774 cells to IC50 for COX2 in LPS-stimulated mouse J774 cells; type: cell-based
[2] = biological target: T1, Prostaglandin G/H synthase 2 (Mus musculus, UniProt Q05769)
T1 sequence (Q05769 whole entry): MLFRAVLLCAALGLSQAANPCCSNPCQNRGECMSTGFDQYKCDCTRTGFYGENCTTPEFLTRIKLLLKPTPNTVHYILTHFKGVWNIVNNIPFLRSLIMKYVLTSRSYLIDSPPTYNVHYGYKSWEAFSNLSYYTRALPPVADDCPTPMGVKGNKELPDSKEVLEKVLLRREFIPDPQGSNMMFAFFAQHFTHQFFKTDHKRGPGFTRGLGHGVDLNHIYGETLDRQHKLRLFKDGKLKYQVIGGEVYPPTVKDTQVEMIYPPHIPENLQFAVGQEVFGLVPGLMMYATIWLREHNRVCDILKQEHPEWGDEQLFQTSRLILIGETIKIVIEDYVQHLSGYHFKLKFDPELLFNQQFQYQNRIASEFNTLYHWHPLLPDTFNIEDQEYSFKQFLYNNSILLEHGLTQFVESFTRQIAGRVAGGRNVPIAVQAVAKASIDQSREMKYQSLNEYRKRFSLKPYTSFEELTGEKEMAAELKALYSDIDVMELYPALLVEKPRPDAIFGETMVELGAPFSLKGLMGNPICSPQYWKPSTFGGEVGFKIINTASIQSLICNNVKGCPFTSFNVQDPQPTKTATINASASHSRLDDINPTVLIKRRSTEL
Description: Inhibition of COX2 in LPS-stimulated mouse J774 cells assessed as inhibition of PGE2 production after 15 mins by radioimmunoassay

[3] = biological target: T2, Prostaglandin G/H synthase 1 (Mus musculus, UniProt P22437); experiment: Inhibition of COX1 in arachidonic acid-stimulated mouse J774 cells assessed as inhibition of PGE2 production after 15 mins by radioimmunoassay; type: cell-based
T2 sequence (P22437 whole entry): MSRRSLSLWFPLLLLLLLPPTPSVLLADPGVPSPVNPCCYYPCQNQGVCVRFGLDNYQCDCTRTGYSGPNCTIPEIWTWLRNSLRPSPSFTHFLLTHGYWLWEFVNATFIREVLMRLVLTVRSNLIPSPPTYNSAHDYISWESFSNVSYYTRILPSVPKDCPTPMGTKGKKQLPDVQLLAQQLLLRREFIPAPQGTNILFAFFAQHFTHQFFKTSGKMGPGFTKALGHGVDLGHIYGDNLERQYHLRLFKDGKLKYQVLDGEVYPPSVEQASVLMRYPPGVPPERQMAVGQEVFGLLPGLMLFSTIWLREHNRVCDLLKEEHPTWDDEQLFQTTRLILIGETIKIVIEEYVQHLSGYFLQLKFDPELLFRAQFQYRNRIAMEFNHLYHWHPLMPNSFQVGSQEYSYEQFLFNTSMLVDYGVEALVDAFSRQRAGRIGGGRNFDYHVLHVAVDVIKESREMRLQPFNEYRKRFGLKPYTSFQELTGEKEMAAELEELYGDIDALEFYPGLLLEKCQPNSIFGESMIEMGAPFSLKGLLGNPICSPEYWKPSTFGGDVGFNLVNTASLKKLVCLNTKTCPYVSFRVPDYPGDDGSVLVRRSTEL

[4] = tested on: Mus musculus; experiment: Analgesic activity against acetic acid-induced writhing in Swiss albino mouse assessed as number of writhes at 20 mg/kg, po administered 30 mins before test; type: functional
[5] = tested on: Rattus norvegicus; experiment: Analgesic activity against carrageenan-induced hyperalgesia in rat assessed as paw pressure at 20 mg/kg, po after 60 mins; type: functional
[6] = tested on: Mus musculus; experiment: Analgesic activity against acetic acid-induced writhing in po dosed Swiss albino mouse assessed as number of writhes administered 30 mins before test; type: functional, organism-based
[7] = tested on: Rattus norvegicus; experiment: Antiinflammatory activity against carrageenan-induced paw edema in rat assessed as paw volume at 20 mg/kg, po administered 4 hrs post carrageenan challenge measured after 60 mins; type: functional
[8] = tested on: Rattus norvegicus; experiment: Analgesic activity against carrageenan-induced hyperalgesia in rat assessed as paw pressure at 20 mg/kg, po after 30 mins; type: functional
[9] = biological target: Prostaglandin G/H synthase 1 (Homo sapiens, UniProt P23219); experiment: Inhibition of COX1 in human whole blood assessed as inhibition of LPS-stimulated PGE2 production by radioimmunoassay; type: tissue-based
[10] = biological target: T3, Prostaglandin G/H synthase 2 (Homo sapiens, UniProt P35354); experiment: Inhibition of COX2 in human whole blood assessed as inhibition of TXB2 production by radioimmunoassay; type: tissue-based
T3 sequence (P35354 whole entry): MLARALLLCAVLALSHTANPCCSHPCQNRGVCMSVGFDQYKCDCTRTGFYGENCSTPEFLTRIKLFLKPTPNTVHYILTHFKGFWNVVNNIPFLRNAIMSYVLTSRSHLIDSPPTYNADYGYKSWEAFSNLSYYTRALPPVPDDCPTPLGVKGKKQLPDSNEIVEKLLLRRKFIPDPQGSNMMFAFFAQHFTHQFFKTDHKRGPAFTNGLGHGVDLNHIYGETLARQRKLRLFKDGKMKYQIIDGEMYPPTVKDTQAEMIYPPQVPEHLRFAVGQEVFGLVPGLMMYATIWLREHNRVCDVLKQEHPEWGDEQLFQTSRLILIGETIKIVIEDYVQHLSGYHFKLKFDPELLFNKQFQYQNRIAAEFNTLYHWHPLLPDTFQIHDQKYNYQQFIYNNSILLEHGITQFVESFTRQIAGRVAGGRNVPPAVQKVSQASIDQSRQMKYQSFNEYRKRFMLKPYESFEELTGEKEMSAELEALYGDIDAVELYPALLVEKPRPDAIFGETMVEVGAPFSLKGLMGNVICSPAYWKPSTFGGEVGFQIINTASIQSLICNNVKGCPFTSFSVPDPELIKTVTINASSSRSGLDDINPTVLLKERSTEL

[11] = tested on: Mus musculus; experiment: Analgesic activity against acetic acid-induced writhing in Swiss albino mouse assessed as number of writhes at 10 mg/kg, po administered 30 mins before test; type: functional
[12] = tested on: Rattus norvegicus; experiment: Analgesic activity against carrageenan-induced hyperalgesia in rat assessed as paw pressure at 20 mg/kg, po after 120 mins; type: functional

Chain of Prostaglandin G/H synthase 1 (Homo sapiens, UniProt P23219) (P23219 whole entry): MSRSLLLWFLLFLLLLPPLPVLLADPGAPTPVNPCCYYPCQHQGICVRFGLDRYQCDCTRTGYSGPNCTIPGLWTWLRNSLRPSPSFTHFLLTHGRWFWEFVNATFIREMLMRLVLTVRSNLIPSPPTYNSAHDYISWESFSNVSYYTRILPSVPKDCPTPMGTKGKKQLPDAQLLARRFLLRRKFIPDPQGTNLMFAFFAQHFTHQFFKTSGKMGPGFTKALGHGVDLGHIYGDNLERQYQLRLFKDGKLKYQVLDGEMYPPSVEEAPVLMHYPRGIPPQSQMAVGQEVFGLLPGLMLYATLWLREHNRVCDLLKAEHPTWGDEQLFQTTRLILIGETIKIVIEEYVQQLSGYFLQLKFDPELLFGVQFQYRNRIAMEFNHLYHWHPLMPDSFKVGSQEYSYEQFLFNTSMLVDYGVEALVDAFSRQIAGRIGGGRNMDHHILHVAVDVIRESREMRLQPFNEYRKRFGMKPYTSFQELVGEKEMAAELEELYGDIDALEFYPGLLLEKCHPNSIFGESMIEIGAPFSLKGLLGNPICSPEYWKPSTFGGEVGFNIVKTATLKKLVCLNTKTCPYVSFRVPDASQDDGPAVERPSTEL

SMILES: CCOC(=O)[C@@H](OCC)c1cc(-c2ccc(S(C)(=O)=O)cc2)n(-c2ccccc2)c1C
Ratio IC50 [1]: > 1000 | IC50 [2]: 100 nM | IC50 [3]: > 100000 nM

SMILES: CCOC(=O)C(O)c1cc(-c2ccc(S(C)(=O)=O)cc2)n(-c2cccc(F)c2)c1C (racemic)
Activity [4]: 16.1 | Activity [5]: 45.2 g | Activity [6]: Dose-dependent effect | Activity [7]: 1.4 mL | Ratio IC50 [1]: > 800 | Activity [8]: 54.8 g | IC50 [2]: 120 nM | IC50 [9]: 21300 nM | IC50 [3]: > 100000 nM | IC50 [10]: 3800 nM | Activity [11]: 26.3 | Activity [12]: 47.5 g

SMILES: CCOC(=O)[C@H](O)c1cc(-c2ccc(S(C)(=O)=O)cc2)n(-c2ccc(OC)cc2)c1C
IC50 [3]: > 100000 nM

SMILES: CCOC(=O)C(OCC)c1cc(-c2ccc(S(C)(=O)=O)cc2)n(-c2cccc(F)c2)c1C (racemic)
Ratio IC50 [1]: > 1000 | IC50 [2]: 100 nM | IC50 [3]: > 100000 nM

SMILES: CCOC(=O)C(O)c1cc(-c2ccc(S(C)(=O)=O)cc2)n(-c2ccc(OC)cc2)c1C (racemic)
IC50 [3]: > 100000 nM

SMILES: CCOC(=O)[C@H](OCC)c1cc(-c2ccc(S(C)(=O)=O)cc2)n(-c2cccc(F)c2)c1C
Ratio IC50 [1]: > 100 | IC50 [2]: 810 nM | IC50 [3]: > 100000 nM

SMILES: CCOC(=O)[C@@H](O)c1cc(-c2ccc(S(C)(=O)=O)cc2)n(-c2ccc(OC)cc2)c1C
IC50 [3]: > 100000 nM

SMILES: CCc1cccc2c3c([nH]c12)C(CC)(CC(=O)O)OCC3 (configuration not stated) [ETODOLAC]
IC50 [10]: 2000 nM

Continued, in another order:

IC50 [2]: 250 nM | IC50 [3]: > 100000 nM
SMILES: CCOC(=O)[C@@H](OCC)c1cc(-c2ccc(S(C)(=O)=O)cc2)n(-c2cccc(F)c2)c1C
Ratio IC50 [1]: > 400

IC50 [2]: 75 nM | IC50 [3]: > 100000 nM
SMILES: CCOC(=O)[C@H](O)c1cc(-c2ccc(S(C)(=O)=O)cc2)n(-c2cccc(F)c2)c1C
Ratio IC50 [1]: > 1300

IC50 [3]: > 100000 nM
SMILES: CCOC(=O)C(O)c1cc(-c2ccc(S(C)(=O)=O)cc2)n(-c2ccccc2)c1C (racemic)

IC50 [3]: > 100000 nM
SMILES: CCOC(=O)[C@@H](O)c1cc(-c2ccc(S(C)(=O)=O)cc2)n(-c2ccccc2)c1C

IC50 [3]: > 100000 nM
SMILES: CCOC(=O)[C@H](O)c1cc(-c2ccc(S(C)(=O)=O)cc2)n(-c2ccccc2)c1C

IC50 [2]: 1100 nM | IC50 [3]: > 100000 nM
SMILES: CCOC(=O)[C@@H](O)c1cc(-c2ccc(S(C)(=O)=O)cc2)n(-c2cccc(F)c2)c1C
Ratio IC50 [1]: > 90

IC50 [2]: 90 nM | IC50 [3]: > 100000 nM
SMILES: CCOC(=O)[C@H](OCC)c1cc(-c2ccc(S(C)(=O)=O)cc2)n(-c2ccc(OC)cc2)c1C
Ratio IC50 [1]: > 1100

IC50 [2]: 140 nM | IC50 [3]: > 100000 nM
SMILES: CCOC(=O)[C@H](OCC)c1cc(-c2ccc(S(C)(=O)=O)cc2)n(-c2ccccc2)c1C
Ratio IC50 [1]: > 700

IC50 [2]: 140 nM | IC50 [3]: > 100000 nM
SMILES: CCOC(=O)[C@@H](OCC)c1cc(-c2ccc(S(C)(=O)=O)cc2)n(-c2ccc(OC)cc2)c1C
Ratio IC50 [1]: > 700

IC50 [2]: 130 nM | IC50 [3]: > 100000 nM
SMILES: CCOC(=O)C(OCC)c1cc(-c2ccc(S(C)(=O)=O)cc2)n(-c2ccc(OC)cc2)c1C (racemic)
Ratio IC50 [1]: > 800

IC50 [2]: 180 nM | IC50 [3]: > 100000 nM
SMILES: CCOC(=O)C(OCC)c1cc(-c2ccc(S(C)(=O)=O)cc2)n(-c2ccccc2)c1C (racemic)
Ratio IC50 [1]: > 800
